# Values of other authors, collected in publication PMC9516532, “A genetically encoded BRET-based SARS-CoV-2 M^pro protease activity sensor” (Communications Chemistry, 2022).
# Test system: P-gp
# Conditions: reviewer's comment; ref ACS Infect. Dis. 2021, 7, 3, 586–597
structure (smiles),measurement,value
CC(C)C[C@H](NC(=O)OCc1ccccc1)C(=O)N[C@@H](C[C@@H]1CCNC1=O)C(O)S(=O)(=O)[O-].[Na+] (stereo partly shown) [GC376],P-gp substrate,known substrate of P-gp
